pEC50: −log10 of the molar value. Activity calls are given as the source filed them. How the calls were made is not given here.
Columns and labels:
Yellow fever virus = test: Antiviral activity against YFV in BHK cells assessed as protection from virus-induced cytopathogenicity by MTT method; format: functional, organism-based
Vaccinia virus = test: Antiviral activity against vaccinia virus; format: functional, organism-based; conditions: Orthopoxvirus vaccinia
[1] = test system: Respiratory syncytial virus; test: Antiviral activity against RSV A2 in VERO76 cells assessed as reduction of plaque number by MTT method; format: functional, organism-based; conditions: human respiratory syncytial virus, A2, Vero 76
Reovirus sp. = test: Antiviral activity against Reovirus; format: functional, organism-based
[2] = Cytotoxicity against human MT4 cells after 96 hrs by MTT method; format: cell-based
Poliovirus 1 = test: Antiviral activity against Human poliovirus 1 Sabin; format: functional
[3] = test system: Bovine viral diarrhea virus 1; test: Antiviral activity against BVDV NADL in MDBK cells assessed as protection from virus-induced cytopathogenicity by MTT method; format: functional, organism-based; conditions: Bovine viral diarrhea virus isolates and strains
[4] = test system: Human immunodeficiency virus 1; test: Antiviral activity against HIV1; format: functional, organism-based
[5] = test system: Vesicular stomatitis virus; test: Antiviral activity against vesicular stomatitis virus; format: functional, organism-based

Structure (SMILES) | pEC50 (Yellow fever virus) | Activity (Vaccinia virus) | pEC50 [1] | Activity (Reovirus sp.) | CC50 at 96 h [2] | Activity (Poliovirus 1) | pEC50 [3] | Activity [4] | Activity [5]
Cc1cc(=O)oc2c(CN3CCN(C/C=C/c4ccccc4)CC3)c(O)ccc12 | < 4.28 | inactive | < 4.00 | inactive | 28 µM | inactive | < 4.74 | inactive | inactive
Cc1cc(=O)oc2c(CN3CCOCC3)c(OC(=O)c3ccccc3)ccc12 | < 4.00 | inactive | < 4.00 | inactive | > 100 µM | inactive | < 4.00 | inactive | inactive
CCCOc1ccc2ccc(=O)oc2c1CN1CCN(C/C=C/c2ccccc2)CC1 | < 4.32 | inactive | < 4.00 | inactive | 16 µM | inactive | 4.82 | inactive | inactive
CCC(=O)Oc1ccc2ccc(=O)oc2c1Cc1c[nH]c2ccccc12 | < 4.28 | inactive | < 4.27 | inactive | 65 µM | inactive | ≤ 4.26 | inactive | inactive
CCCOc1ccc2c(C)cc(=O)oc2c1CN1CCN(C/C=C/c2ccccc2)CC1 | < 4.28 | inactive | < 4.00 | inactive | > 100 µM | inactive | 4.57 | inactive | inactive
CC(=O)Oc1ccc2c(C)cc(=O)oc2c1Cc1c(C)[nH]c2ccccc12 | < 4.00 | inactive | 4.60 | inactive | 41 µM | inactive | < 4.00 | inactive | inactive
COc1ccc2c(=O)c(Cc3c(OC(C)=O)ccc4ccc(=O)oc34)c(N(C)C)oc2c1 | < 4.00 | inactive | < 4.60 | inactive | 26 µM | inactive | < 4.29 | inactive | inactive
Cc1cc(=O)oc2c(CN(C)CC(=O)O)c(O)ccc12 | < 4.00 | inactive | < 4.00 | inactive | > 100 µM | inactive | < 4.00 | inactive | inactive
CC(=O)Oc1ccc2ccc(=O)oc2c1Cc1c(N(C)C)oc2ccc3ccccc3c2c1=O | < 4.28 | inactive | < 4.52 | inactive | 80 µM | inactive | < 4.32 | inactive | inactive
Cc1cc(=O)oc2c(CN3CCN(C/C=C/c4ccccc4)CC3)c(OC(=O)c3ccccc3)ccc12 | < 4.00 | inactive | < 4.10 | inactive | 45 µM | inactive | 4.72 | inactive | inactive
CCC(=O)Oc1ccc2c(C)cc(=O)oc2c1Cc1c(-c2ccccc2)[nH]c2ccccc12 | < 4.57 | inactive | < 4.00 | inactive | 38 µM | inactive | 5.15 | inactive | inactive
CCOC(=O)N1CCN(Cc2c(O)ccc3c(C)cc(=O)oc23)CC1 | < 4.00 | inactive | ≤ 4.00 | inactive | > 100 µM | inactive | < 4.00 | inactive | inactive
CN(CC(=O)O)Cc1c(O)ccc2ccc(=O)oc12 | < 4.00 | inactive | < 4.00 | inactive | > 100 µM | inactive | < 4.00 | inactive | inactive
CCN(CC)c1oc2cc(OC)ccc2c(=O)c1Cc1c(OC(C)=O)ccc2ccc(=O)oc12 | < 4.00 | inactive | 4.70 | inactive | 83 µM | inactive | < 4.00 | inactive | inactive
COc1ccc2[nH]cc(Cc3c(OC(C)=O)ccc4c(C)cc(=O)oc34)c2c1 | < 4.00 | inactive | < 4.00 | inactive | 72 µM | inactive | < 4.00 | inactive | inactive
COc1ccc2c(=O)c(Cc3c(OC(C)=O)ccc4ccc(=O)oc34)c(N3CCCC3)oc2c1 | < 4.00 | inactive | < 4.00 | inactive | > 100 µM | inactive | < 4.00 | inactive | inactive
CCCOc1ccc2c(C)cc(=O)oc2c1CN1CCc2ccccc2C1 | < 4.00 | inactive | < 4.03 | inactive | > 100 µM | inactive | 4.70 | inactive | inactive
CCN(CC)c1oc2cc(OC)ccc2c(=O)c1Cc1c(O)ccc2c(C)cc(=O)oc12 | < 4.00 | inactive | < 4.00 | inactive | > 100 µM | inactive | < 4.00 | inactive | inactive
COCCN(CCOC)c1oc2ccc3ccccc3c2c(=O)c1Cc1c(OC(C)=O)ccc2c(C)cc(=O)oc12 | < 4.00 | inactive | ≤ 4.00 | inactive | > 100 µM | inactive | < 4.00 | inactive | inactive
Cc1cc(=O)oc2c(CN3CCN(Cc4ccc5c(c4)OCO5)CC3)c(O)ccc12 | < 4.00 | inactive | < 4.00 | inactive | 72 µM | inactive | 4.12 | inactive | inactive
CC(=O)Oc1ccc2c(C)cc(=O)oc2c1Cc1c(-c2ccccc2)[nH]c2ccccc12 | < 4.00 | inactive | < 4.00 | inactive | > 100 µM | inactive | < 4.00 | inactive | inactive

Reference: ChEMBL document CHEMBL1144007, “Activity of Mannich bases of 7-hydroxycoumarin against Flaviviridae” (Bioorg Med Chem, 2008)
